Measured values reported in patent US12599130B2, “Liquid agricultural adjuvant” (Oro Agri Inc., priority 2019, dated 2026).

System: wheat
Experiment: Field trial: wheat cover crop burndown with glyphosate plus adjuvant at full tillering
Type: in vivo
Conditions: 14 DAT, adjuvant rate 10 g/L, glyphosate 420 g ae/ha
Method: Adjuvant x Adjuvant rate effect on wheat cover crop burndown with glyphosate at full tillering stage.
A bifactorial trial was conducted consisting of […] treatments, comprised of a combination of 10 adjuvants (factor A) and 2 adjuvants rates (factor B), plus three reference treatments (Table 6).
Prior to treatment application, two plots per block were chosen to record wheat height and tiller number per plant. In each plot, the height of the tallest and shortest plant was measured, and the tillers counted.
Herbicide application was done using a single-nozzle boom connected to a backpack CO2 pressurized system. Each plot measured 3 ft×20 ft. After 14 and 28 days of application, wheat desiccation was evaluated visually using a 0-100% scale, where 0 corresponds to absence of injury symptoms and 100% corresponds to plant death.

Row | SMILES | Wheat desiccation (%)
1 | N.N.O=S(=O)(O)O [Ammonium sulfate] | 80

Same assay, conditions: 28 DAT, adjuvant rate 10 g/L, glyphosate 420 g ae/ha

Row | SMILES | Wheat desiccation (%)
2 | N.N.O=S(=O)(O)O [Ammonium sulfate] | 95

System: not listed separately
Experiment: Paraffin wax solubility test
Type: physicochemical
Conditions: 2.0 g paraffin wax in 98 g solvent, 25° C., stirring at 350 rpm

Row | DISSOLUTION TIME [min] | SMILES
3 | 300 | CCCCCCCCCCCC(=O)OC [METHYL LAURATE]
4 | 102 | CCCCCCCCCCCC(=O)OC(C)C [ISOPROPYL LAURATE]
5 | 620 | CCCCCCCCCCCC(=O)OCCC(C)C [ISOAMYL LAURATE]
6 | 930 | CCCCCCCCCCCC(=O)OCC(CC)CCCC (stereo not drawn) [2-ETHYLHEXYL LAURATE]
7 | 340 | CCCCCCCCCCCC(=O)OCC(C)C [ISOBUTYL LAURATE]

Same assay, conditions: 2.0 g paraffin wax in 98 g solvent, 25° C., up to 24 hours stirring

Row | OBSERVATION | SMILES
8 | UNDISSOLVED | CC1COC(=O)O1 (stereo not drawn) [PROPYLENE CARBONATE]
9 | UNDISSOLVED | OCC1CCCO1 (stereo not drawn) [TETRAHYDROFURFURAL ALCOHOL]
10 | UNDISSOLVED | C[S+](C)[O-] [DIMETHYL SULFOXIDE]

Row | SMILES | OBSERVATION
11 | CCCCCCCCCC(=O)N(C)C | UNDISSOLVED
12 | O=C1CCCCC1 [CYCLOHEXANONE] | UNDISSOLVED
